Source: patent publication US20170044100A1, “INHIBITORS OF DRUG-RESISTANT MYCOBACTERIUM TUBERCULOSIS” (THE JOHNS HOPKINS UNIVERSITY, priority 2014, published 2017)
Values after ≈ are worked out from the molar mass of the structure shown. Read-outs that look alike come from different tables or passages of the source.

Assays:
[1] = test system: M. tuberculosis strain H37Rv; experiment: microbe, parasite or virus in culture; assay type: cell-based, Mycobacterium tuberculosis; design: MICMABA: unit not given here; conditions: for MICMABA: H37Rv, MABA, Table 9; for MIC: Mycobacterium tuberculosis
M. tuberculosis H37Rv [2] = experiment: microbe, parasite or virus in culture; assay type: cell-based, Mycobacterium tuberculosis; design: MICBD / MBCBD: unit not given here; conditions: for MBCBD / MICBD: H37Rv, broth dilution, Table 9; for MBC: Mycobacterium tuberculosis, H37RV, read-out: minimum bactericidal concentration (MBC)
[3] = test system: V4207 (drug susceptible strain of M. tuberculosis); experiment: microbe, parasite or virus in culture; assay type: cell-based; conditions: Mycobacterium tuberculosis, MABA, read-out: MIC V4207 (DS)
Vero cells = experiment: Cytotoxicity assay on Vero cells (alamar blue); conditions: for IC50: Chlorocebus sabaeus, Vero
in vitro = conditions: African green monkey, IC50 (cytotoxicity against Vero cells), Table 1
M. tuberculosis H37Rv [4] = assay type: in vivo, BALB/c mice
[5] = design: species or system BALB/c mice; conditions: mouse, in vivo
Method: Female BALB/c mice (20 g each, Charles River Laboratories) were given a single dose of compound 12 at 100 mg/kg by oral gavage in a volume of 0.2 mL. […] Mouse lungs were removed, weighed and stored at −80° C. Plasma was separated by centrifugation at 12,000 x g for 20 min at 4° C. and stored at −80° C. Mouse lungs were homogenized by bead-beating in 0.5 mL of liquid chromatography/mass spectrometry (LC/MS) water and supernatants were recovered by centrifugation at 4° C. for 20 min. Concentrations of compound 12 in plasma and lung homogenate supernatants were analyzed with LC-tandem MS (LC-MS/MS, AB SCIEX QTRAP 5500 system) with compound 2 as internal standard. MS detection of mass transitions 299.01/146.1 and 299.01/131.1 was carried out. Concentration calculation was done with MultiQuant Software (Version 2.1, AB SCIEX). The pharmacokinetic profile of the test compound was analyzed from plasma and lung concentration-time data after oral administration.
A single 100 mg/kg dose of compound 12 was administered to 24 mice (3 per time point). Plasma and lung concentration of compound 12 was determined by liquid chromatography-tandem mass spectrometry.

[6] = Cytotoxicity assay on Vero cells (alamar blue); conditions: African green monkey, Vero cells (ATCC CCL-81)
M. tuberculosis H37Rv [7] = assay type: cell-based, Mycobacterium tuberculosis; conditions: 4× MIC
[8] = control strains H37Rv and V4207, read-out: MIC
[9] = parental H37Rv strain, read-out: MIC for H37Rv
[10] = read-out: IC50 Vero Cells, Vero cells, Table 9

SMILES | MICMABA [1] | MIC ([1]; H37RV) [µM] | MIC [1, 8] [mg/L] | MIC [1, 9] [mg/L] | MBCBD (M. tuberculosis H37Rv [2]) | MICBD (M. tuberculosis H37Rv [2]) | MBC (M. tuberculosis H37Rv [2]) [mg/L] | MIC [3] [µM] | IC50 (Vero cells; [10]) [mg/L] | IC50 (in vitro) [µM] | other results
Cc1cc(C)c2cc(C(=O)NC3CCCCC3)[nH]c2c1 [Compound 3, N-Cyclohexyl-4,6-dimethyl-1H-indole-2-carboxamide] | 0.125 | 0.93 | 0.125 to 0.25 | 0.125 to 0.25 | 0.25 | 0.25 | 0.25 (≈ 0.925 µM) | 0.93 (≈ 0.251 µg/mL) | > 64 | > 200 | Selectivity Index (Vero cells): >256; selectivity index (Vero cells): > 256; IC50 for Vero cell viability (Vero cells; Vero cell line): 16 mg/L
Cc1cc(C)c2cc(C(=O)NC3CCCCCCC3)[nH]c2c1 [Compound 12, N-Cyclooctyl-4,6-dimethyl-1H-indole-2-carboxamide] | 0.0039 | 0.013 | 0.0039 | 0.0039 |  |  | 0.0078 (≈ 0.0261 µM) | 0.026 (≈ 0.00776 µg/mL) |  |  | Mean lung CFU counts (standard deviation), Day 7 (M. tuberculosis H37Rv [4]; 33.3 mg/kg oral gavage daily (5 days per week)): 7.184 (0.244); Mean lung CFU counts (standard deviation), Day 14 (M. tuberculosis H37Rv [4]; 33.3 mg/kg oral gavage daily): 7.001 (0.206); Mean lung CFU counts (standard deviation), Day 28 (M. tuberculosis H37Rv [4]; 33.3 mg/kg oral gavage daily): 6.919 (0.112); Mean lung CFU counts (standard deviation), Day 7 (M. tuberculosis H37Rv [4]; 100 mg/kg oral gavage daily): 6.902 (0.243); Mean lung CFU counts (standard deviation), Day 14 (M. tuberculosis H37Rv [4]; 100 mg/kg oral gavage daily): 7.122 (0.148); Mean lung CFU counts (standard deviation), Day 28 (M. tuberculosis H37Rv [4]; 100 mg/kg oral gavage daily): 6.803 (0.068); Mean lung CFU counts (standard deviation), Day 7 (M. tuberculosis H37Rv [4]; 300 mg/kg oral gavage daily): 6.768 (0.329); Mean lung CFU counts (standard deviation), Day 14 (M. tuberculosis H37Rv [4]; 300 mg/kg oral gavage daily): 6.981 (0.305); Mean lung CFU counts (standard deviation), Day 28 (M. tuberculosis H37Rv [4]; 300 mg/kg oral gavage daily): 6.746 (0.157); lung CFU counts compared to untreated mice (M. tuberculosis H37Rv [4]; after four weeks of treatment, 33, 100 and 300 mg/kg daily oral gavage): significantly lower; MIC for H37Rv ([1]; parental H37Rv strain): 0.0039 mg/L; oral bioavailability in mice [5]: orally bioavailable; AUC0-24, lung ([5]; po, 100 mg/kg): 31.40 mg·h/kg; IC50 at 72 h [6]: 54 µM; IC50 (Vero cells; read-out: IC50 Vero Cells): 16 mg/L (≈ 53.6 µM); Selectivity Index (Vero cells; Vero IC50 versus MIC, Table 9): 4000; selectivity index (Vero cells; toxicity versus MIC): 4000; time to kill at least 4 log10 CFUs (M. tuberculosis H37Rv [7]): ≤ 5 days
Cc1cc(C)c2cc(C(=O)Nc3ccccc3)[nH]c2c1 [Compound 4, N-Phenyl-4,6-dimethyl-1H-indole-2-carboxamide] | 1 | 3.8 |  |  | 8 | 1 |  |  | > 64 | > 200 | 
